Data taken from PMC12677843, “Multidisciplinary Preclinical Investigations on Ferrocenyl, Ruthenocenyl, and Benzyl Derivatives of Niridazole as New Drug Candidates against Schistosomiasis” (Chemmedchem, 2025).
Read-outs that look alike come from different tables or passages of the source.

Test system: adult S. mansoni
Test: In vitro drug sensitivity assay on adult S. mansoni (microscopic viability scoring)
Assay type: cell-based, Schistosoma mansoni
Details: for EC50: Schistosoma mansoni, 37 °C, 5% CO2
Procedure: Figure 3 In vitro activity at 50 µM of the 12 compounds on adult S. mansoni. Adult schistosomes were incubated in culture media for 72 h at 37 °C and 5% CO2 with either compound (50 µM) or a DMSO (0.5%) control. The viability of the worms was microscopically evaluated and scored (0—3, in 0.5 steps) every 24 h. Results are from two independent experiments, each performed in duplicate. Drug activities were normalized to the DMSO controls. Data represent mean ± SD in percentage of DMSO control. […]
In vitro evaluation on adult S. mansoni
After a week for acclimatization to the new environment with controlled conditions (temperature: 22 °C ± 2 °C, humidity: 50 % ± 10 %, 12:12 h light/dark photocycle), four-week-old female NMRI mice (Charles River, Sulzfeld, Germany) were subcutaneously infected with approximately 100 cercariae to establish the S. mansoni infection. In the S. mansoni infected mice the worms were allowed to develop for 7 weeks into the adult stage, before they were extracted from the mesenteric veins of the euthanized mice. The adult worms were placed into RPMI 1640 (Gibco, Waltham MA, USA) medium supplemented with 1 % penicillin/streptomycin mixture and 5 % iFCS at 37 °C and 5 % CO 2. The drug sensitivity assay was set up in a 24-well plate with two wells containing each two pairs of S. mansoni worms per compound and concentration.
The final volume per well was 2 mL, containing the culture medium and the corresponding amount of drug dissolved in DMSO. The maximum concentration tested was 50 µM, corresponding to 0.5 % DMSO, to which all the other wells were adapted […]
to, so that all test concentrations contained always the same amount of DMSO.
Additionally, 2 wells with negative controls containing only DMSO and the culture medium were included. After an incubation period of 72 h at 37 °C and 5 % CO 2, the worms were microscopically evaluated. The drug effect was determined 24, 48 and 72 h post-exposure based on the phenotype of the adult worms, using a viability scale ranging from three referring to viable, motile worms with no change in their tegument to zero standing for the death of the worms.
All described in vitro studies with mice involved, were conducted at the Swiss Tropical and Public Health Institute, first in Basel, later in Allschwil, and had the approval by the corresponding veterinary authorities of the Canton Basel-Stadt (permit no. 2070)

## O=C1NCCN1c1ncc([N+](=O)[O-])s1 [Niridazole, niridazole]
50 µM, 72 h incubation, normalized to DMSO control, active if ≥60%
  drug effect at 50 µM on adult S. mansoni: 83%
24 h, 24 h drug exposure, read-out: EC50 on adult S. mansoni, 24 h
  EC50: > 50 µM
48 h, 48 h drug exposure, read-out: EC50 on adult S. mansoni, 48 h
  EC50: 7.8 µM
72 h, 72 h drug exposure, read-out: EC50 on adult S. mansoni, 72 h
  EC50: 5.6 µM
